Measured values reported in the NIST ThermoML archive (doi:10.1021/je100821g).

Assays:
[1] = Liquid; for viscosity / mass density: 101.33 kPa; for viscosity: Concentric cylinders viscometry; for mass density: Vibrating tube method
[2] = excess molar enthalpy (molar enthalpy of mixing); xn = mol fraction of the nth substance listed; conditions: 303 K, 101 kPa, Liquid, Calvet calorimetry
[3] = xn = mol fraction of the nth substance listed; conditions: 293.15 K, 101 kPa, Liquid; for viscosity: Concentric cylinders viscometry

COC(C)(C)C [2-methoxy-2-methylpropane]
[1]
Conditions	mass density [kg/m3]	vapor or sublimation pressure [kPa]	viscosity [mPa·s]
273.15 K	760.4	–	0.39
283.15 K	750.1	–	0.36
286.5 K	–	20	–
291.3 K	–	25	–
293.15 K	739.9	–	0.333
295.5 K	–	30	–
298.15 K	734.4	–	0.319
299.2 K	–	35	–
302.5 K	–	40	–
303.15 K	729.2	41	0.304
305.45 K	–	45	–
308.2 K	–	50	–
310.8 K	–	55	–
313.1 K	–	60	–
313.15 K	718.5	–	0.278
315.3 K	–	65	–
317.4 K	–	70	–
319.3 K	–	75	–
321.1 K	–	80	–
322.9 K	–	85	–
324.5 K	–	90	–
325.4 K	–	92.5	–
326.2 K	–	95	–
326.9 K	–	97.2	–

COC(C)(C)C [2-methoxy-2-methylpropane] + ClC(Cl)Cl
x2 = 0
Conditions	excess molar enthalpy [kJ/mol]	mass density [kg/m3]	viscosity [mPa·s]
[2]	0	–	–
[3]	–	739.9	0.333

ClC(Cl)Cl [trichloromethane]
[1]
Conditions	mass density [kg/m3]	vapor or sublimation pressure [kPa]	viscosity [mPa·s]
273.15 K	1526	–	0.713
283.15 K	1507.1	–	0.651
293.15 K	1488.4	–	0.6
298.15 K	1478.8	–	0.576
303.15 K	1469.2	32.2	0.552
313.15 K	1450	–	0.509
318.15 K	1440	–	0.491

ClC(Cl)Cl [trichloromethane] + COC(C)(C)C
Conditions	excess molar enthalpy [kJ/mol]	mass density [kg/m3]	viscosity [mPa·s]
[2], x1 = 0.038	-0.342	–	–
[2], x1 = 0.068	-0.664	–	–
[2], x1 = 0.097	-0.92	–	–
[2], x1 = 0.101	-1.02	–	–
[2], x1 = 0.118	-1.1	–	–
[2], x1 = 0.154	-1.2	–	–
[2], x1 = 0.172	-1.3	–	–
[2], x1 = 0.219	-1.6	–	–
[2], x1 = 0.251	-1.9	–	–
[2], x1 = 0.39	-2.1	–	–
[2], x1 = 0.516	-2.1	–	–
[2], x1 = 0.669	-1.8	–	–
[2], x1 = 0.78	-1.5	–	–
[2], x1 = 0.864	-0.8	–	–
[2], x1 = 0.899	-0.65	–	–
[2], x1 = 0.931	-0.48	–	–
[2], x1 = 0.958	-0.28	–	–
[2], x1 = 0.986	-0.15	–	–
[2], x1 = 1	0	–	–
[3], x1 = 0.0527	–	768.1	0.358
[3], x1 = 0.0834	–	785.4	0.372
[3], x1 = 0.1841	–	842.6	0.423
[3], x1 = 0.2714	–	895.6	0.47
[3], x1 = 0.358	–	951.5	0.514
[3], x1 = 0.4511	–	1015	0.56
[3], x1 = 0.546	–	1083.8	0.595
[3], x1 = 0.6303	–	1148.9	0.612
[3], x1 = 0.724	–	1225.9	0.62
[3], x1 = 0.8108	–	1302.9	0.618
[3], x1 = 0.8948	–	1381.1	0.613
[3], x1 = 0.9515	–	1437.9	0.609
[3], x1 = 1	–	1488.4	0.6
